Source: PubChem BioAssay AID1259407 (Chemical Carcinogenesis Research Information System (CCRIS), 2018)
Active and inactive are the calls of the source. How the calls were made is not given here.

System: CCRIS mutagenicity, Ames/micronucleus/aberration tests
Assay: CCRIS mutagenicity studies
[1] = Test System: AMES SALMONELLA TYPHIMURIUM, Strain/Indicator: TA97, Metabolic Activation: NONE, Method: PREINCUBATION
[2] = Test System: AMES SALMONELLA TYPHIMURIUM, Strain/Indicator: TA98, Metabolic Activation: NONE, Method: PREINCUBATION
[3] = Test System: AMES SALMONELLA TYPHIMURIUM, Strain/Indicator: TA100, Metabolic Activation: NONE, Method: PREINCUBATION
[4] = Test System: AMES SALMONELLA TYPHIMURIUM, Strain/Indicator: TA102, Metabolic Activation: NONE, Method: PREINCUBATION
[5] = Test System: AMES SALMONELLA TYPHIMURIUM, Strain/Indicator: TA104, Metabolic Activation: NONE, Method: PREINCUBATION
[6] = Test System: AMES SALMONELLA TYPHIMURIUM, Strain/Indicator: TA1535, Metabolic Activation: NONE, Method: PREINCUBATION

Measured: mutagenic call

CC(C)(C)c1ccc(O)c(O)c1
inactive: Test System: AMES SALMONELLA TYPHIMURIUM, Strain/Indicator: TA97, Metabolic Activation: HAMSTER LIVER S-9, AROCLOR 1254 (10% OR 30%), Method: PREINCUBATION inactive; negative | [1] inactive; negative | Test System: AMES SALMONELLA TYPHIMURIUM, Strain/Indicator: TA97, Metabolic Activation: RAT LIVER S-9, AROCLOR 1254 (10% OR 30%), Method: PREINCUBATION inactive; negative | Test System: AMES SALMONELLA TYPHIMURIUM, Strain/Indicator: TA98, Metabolic Activation: HAMSTER LIVER S-9, AROCLOR 1254 (10% OR 30%), Method: PREINCUBATION inactive; negative | [2] inactive; negative | Test System: AMES SALMONELLA TYPHIMURIUM, Strain/Indicator: TA98, Metabolic Activation: RAT LIVER S-9, AROCLOR 1254 (10% OR 30%), Method: PREINCUBATION inactive; negative | Test System: AMES SALMONELLA TYPHIMURIUM, Strain/Indicator: TA100, Metabolic Activation: HAMSTER LIVER S-9, AROCLOR 1254 (10% OR 30%), Method: PREINCUBATION inactive; negative | [3] inactive; negative | Test System: AMES SALMONELLA TYPHIMURIUM, Strain/Indicator: TA100, Metabolic Activation: RAT LIVER S-9, AROCLOR 1254 (10% OR 30%), Method: PREINCUBATION inactive; negative | Test System: AMES SALMONELLA TYPHIMURIUM, Strain/Indicator: TA102, Metabolic Activation: HAMSTER LIVER S-9, AROCLOR 1254 (10% OR 30%), Method: PREINCUBATION inactive; negative | [4] inactive; negative | Test System: AMES SALMONELLA TYPHIMURIUM, Strain/Indicator: TA102, Metabolic Activation: RAT LIVER S-9, AROCLOR 1254 (10% OR 30%), Method: PREINCUBATION inactive; negative | Test System: AMES SALMONELLA TYPHIMURIUM, Strain/Indicator: TA104, Metabolic Activation: HAMSTER LIVER S-9, AROCLOR 1254 (10% OR 30%), Method: PREINCUBATION inactive; negative | [5] inactive; negative | Test System: AMES SALMONELLA TYPHIMURIUM, Strain/Indicator: TA104, Metabolic Activation: RAT LIVER S-9, AROCLOR 1254 (10% OR 30%), Method: PREINCUBATION inactive; negative | Test System: AMES SALMONELLA TYPHIMURIUM, Strain/Indicator: TA1535, Metabolic Activation: HAMSTER LIVER S-9, AROCLOR 1254 (10% OR 30%), Method: PREINCUBATION inactive; negative | [6] inactive; negative | Test System: AMES SALMONELLA TYPHIMURIUM, Strain/Indicator: TA1535, Metabolic Activation: RAT LIVER S-9, AROCLOR 1254 (10% OR 30%), Method: PREINCUBATION inactive; negative

c1cnc2c3c(ccc2c1)C1OC1CC3 (centres undefined)
inactive: Test System: AMES SALMONELLA TYPHIMURIUM, Strain/Indicator: TA100, Metabolic Activation: NONE, Method: STANDARD PLATE inactive; negative

Oc1cccc(O)c1
active: End Point: In vitro chromosomal aberrations, Test System: Chinese hamster lung (CHL/IU) cells, Metabolic Activation: Rat, Liver, S9, Phenobarbital and 5,6-benzoflavone active; positive (structural changes and ploidy). weak response. | Test System: AMES SALMONELLA TYPHIMURIUM, Strain/Indicator: TA98, Metabolic Activation: RAT, LIVER, S-9, Method: STANDARD PLATE active; positive | Test System: E. COLI, Strain/Indicator: B/R WP2 (TRP-HCR-), Metabolic Activation: RAT, LIVER, S-9, Method: STANDARD PLATE active; positive | Test System: MOUSE LYMPHOMA, Strain/Indicator: L5178Y (TK+/TK-), Metabolic Activation: NONE, Method: SUSPENSION/PLATE active; positive
inactive: End Point: MORPHOLOGICAL TRANSFORMATION, Test System: SYRIAN HAMSTER EMBRYO CELLS (SHE) inactive; negative | End Point: MORPHOLOGICAL TRANSFORMATION, Test System: SYRIAN HAMSTER EMBRYO CELLS (SHE), Metabolic Activation: NONE inactive; negative | [1] inactive; negative | Test System: AMES SALMONELLA TYPHIMURIUM, Strain/Indicator: TA97, Metabolic Activation: RAT, LIVER, S-9, PHENOBARBITAL, Method: PREINCUBATION inactive; negative | Test System: AMES SALMONELLA TYPHIMURIUM, Strain/Indicator: TA98, Metabolic Activation: HAMSTER, LIVER, S-9, AROCLOR 1254 (10%), Method: PREINCUBATION inactive; negative | Test System: AMES SALMONELLA TYPHIMURIUM, Strain/Indicator: TA98, Metabolic Activation: NONE inactive; negative | [2] inactive; negative | Test System: AMES SALMONELLA TYPHIMURIUM, Strain/Indicator: TA98, Metabolic Activation: RAT, LIVER, S-9, AROCLOR 1254 (10%), Method: PREINCUBATION inactive; negative | Test System: AMES SALMONELLA TYPHIMURIUM, Strain/Indicator: TA98, Metabolic Activation: RAT, LIVER, S-9, PHENOBARBITAL, Method: PREINCUBATION inactive; negative | Test System: AMES SALMONELLA TYPHIMURIUM, Strain/Indicator: TA98, Metabolic Activation: RAT, LIVER, S-9, SODIUM PHENOBARBITAL AND 5,6-BENZOFLAVONE, Method: PREINCUBATION inactive; negative | Test System: AMES SALMONELLA TYPHIMURIUM, Strain/Indicator: TA98, Metabolic Activation: S-9 inactive; negative | Test System: AMES SALMONELLA TYPHIMURIUM, Strain/Indicator: TA100, Metabolic Activation: HAMSTER, LIVER, S-9, AROCLOR 1254 (10%), Method: PREINCUBATION inactive; negative | [3] inactive; negative | Test System: AMES SALMONELLA TYPHIMURIUM, Strain/Indicator: TA100, Metabolic Activation: RAT, LIVER, S-9, AROCLOR 1254 (10%), Method: PREINCUBATION inactive; negative | Test System: AMES SALMONELLA TYPHIMURIUM, Strain/Indicator: TA100, Metabolic Activation: RAT, LIVER, S-9, SODIUM PHENOBARBITAL AND 5,6-BENZOFLAVONE, Method: PREINCUBATION inactive; negative | [4] inactive; negative | Test System: AMES SALMONELLA TYPHIMURIUM, Strain/Indicator: TA102, Metabolic Activation: RAT, LIVER, S-9, SODIUM PHENOBARBITAL AND 5,6-BENZOFLAVONE, Method: PREINCUBATION inactive; negative | [5] inactive; negative | Test System: AMES SALMONELLA TYPHIMURIUM, Strain/Indicator: TA104, Metabolic Activation: RAT, LIVER, S-9, SODIUM PHENOBARBITAL AND 5,6-BENZOFLAVONE, Method: PREINCUBATION inactive; negative | Test System: AMES SALMONELLA TYPHIMURIUM, Strain/Indicator: TA1535, Metabolic Activation: HAMSTER, LIVER, S-9, AROCLOR 1254 (10%), Method: PREINCUBATION inactive; negative | [6] inactive; negative | Test System: AMES SALMONELLA TYPHIMURIUM, Strain/Indicator: TA1535, Metabolic Activation: RAT, LIVER, S-9, AROCLOR 1254 (10%), Method: PREINCUBATION inactive; negative | Test System: AMES SALMONELLA TYPHIMURIUM, Strain/Indicator: TA1535, Metabolic Activation: RAT, LIVER, S-9, SODIUM PHENOBARBITAL AND 5,6-BENZOFLAVONE, Method: PREINCUBATION inactive; negative | Test System: AMES SALMONELLA TYPHIMURIUM, Strain/Indicator: TA1537, Metabolic Activation: HAMSTER, LIVER, S-9, AROCLOR 1254 (10%), Method: PREINCUBATION inactive; negative | Test System: AMES SALMONELLA TYPHIMURIUM, Strain/Indicator: TA1537, Metabolic Activation: NONE, Method: PREINCUBATION inactive; negative | Test System: AMES SALMONELLA TYPHIMURIUM, Strain/Indicator: TA1537, Metabolic Activation: RAT, LIVER, S-9, AROCLOR 1254 (10%), Method: PREINCUBATION inactive; negative | Test System: AMES SALMONELLA TYPHIMURIUM, Strain/Indicator: TA1537, Metabolic Activation: RAT, LIVER, S-9, SODIUM PHENOBARBITAL AND 5,6-BENZOFLAVONE, Method: PREINCUBATION inactive; negative | Test System: E. COLI, Strain/Indicator: WP2UVRA/PKM101, Metabolic Activation: NONE, Method: PREINCUBATION inactive; negative | Test System: E. COLI, Strain/Indicator: WP2UVRA/PKM101, Metabolic Activation: RAT, LIVER, S-9, SODIUM PHENOBARBITAL AND 5,6-BENZOFLAVONE, Method: PREINCUBATION inactive; negative | Test System: E. COLI, Strain/Indicator: WP2UVRA, Metabolic Activation: NONE, Method: PREINCUBATION inactive; negative | Test System: E. COLI, Strain/Indicator: WP2UVRA, Metabolic Activation: RAT, LIVER, S-9, SODIUM PHENOBARBITAL AND 5,6-BENZOFLAVONE, Method: PREINCUBATION inactive; negative
